Source: ChEMBL document CHEMBL1201862, “PubChem BioAssay data set” (2004)
The source made the active and inactive calls.

What was measured:
[1] = insulin promoter down-regulators in MIN6 cells, imaging, high-content screening, mouse beta cells (AID 1628); assay type: functional
[2] = cytotoxicity in MIN6 insulinoma cells, dose response, cytotoxicity control, cell-based, mouse insulinoma (AID 2122); assay type: functional;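 further: confirmatory high-throughput counterscreen run to flag cytotoxic compounds; mouse MIN-6 beta cells carrying an insulin promoter eGFP reporter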
[3] = cytotoxicity in HEK-293T cells, dose response, cytotoxicity control for TCR NF-kB inhibitor project, luminescence, T-cell screen hits (AID 489026); assay type: functional, cell-based;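 further: cells exposed to compound about 14 hours before the viability readout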
INS1 = assay: beta cell apoptosis inhibitors, cytokine rescue, dose response, luminescence, retest (AID 449756); assay type: functional, cell-based; conditions: Rattus norvegicus;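 further: cell death triggered by IL-1 beta plus TNF-alpha plus IFN-gamma mixture; protective hits raise ATP signal compared with cytokine alone wells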
[4] = Shn3 3'UTR reporter inhibitors, dose response, cell-based, Clone20 osteoblasts, firefly luciferase, cherry-picked (AID 624132); assay type: functional;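 further: firefly luciferase luminescence from reporter carrying the Shn3 3'UTR in osteoblasts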
[5] = HepG2 cell cytotoxicity, dose response, cytotoxicity control for Shn3 inhibitor project, CellTiter-Glo, cherry-picked (AID 624134); assay type: functional, cell-based
[6] = control 3'UTR Renilla luciferase suppression, dose response, counter-screen for Shn3 inhibitor project, cell-based, Clone20-Shn3RL, cherry-picked (AID 624133); assay type: functional
[7] = molecular target: COUP transcription factor 2 (Homo sapiens, UniProt P24468); assay: Luminescence-based cell-based high throughput dose response assay to identify inhibitors of COUP-TFII (NR2F2).; assay type: functional;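 further: HEK293 cells transiently cotransfected with COUP-TFII expression vector and reporter; luciferase reporter luminescence driven by COUP-TFII from the pX2-168 reporter plasmid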
Sequence of COUP transcription factor 2 (P24468 whole entry): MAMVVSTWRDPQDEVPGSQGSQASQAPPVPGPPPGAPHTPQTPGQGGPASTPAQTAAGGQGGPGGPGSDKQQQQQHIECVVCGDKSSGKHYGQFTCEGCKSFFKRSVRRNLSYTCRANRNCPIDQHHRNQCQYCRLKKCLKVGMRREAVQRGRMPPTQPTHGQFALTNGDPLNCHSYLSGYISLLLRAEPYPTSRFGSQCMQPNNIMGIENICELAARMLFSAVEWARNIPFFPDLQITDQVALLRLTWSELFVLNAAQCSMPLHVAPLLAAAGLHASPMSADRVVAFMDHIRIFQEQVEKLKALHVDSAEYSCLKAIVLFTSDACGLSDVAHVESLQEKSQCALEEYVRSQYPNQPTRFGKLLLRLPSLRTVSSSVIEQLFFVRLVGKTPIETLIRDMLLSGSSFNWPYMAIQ

Paired box protein Pax-8 = Paired box protein Pax-8 (Homo sapiens, UniProt Q06710); assay: inhibitors of PAX8-driven TPO luciferase reporter, dose response, RMG-I cells, cherry-pick (AID 687027); assay type: functional, cell-based;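 further: luciferase reporter driven by Pax8 target thyroperoxidase promoter measured by SteadyGlo luminescence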
Sequence of Paired box protein Pax-8 (Q06710 whole entry): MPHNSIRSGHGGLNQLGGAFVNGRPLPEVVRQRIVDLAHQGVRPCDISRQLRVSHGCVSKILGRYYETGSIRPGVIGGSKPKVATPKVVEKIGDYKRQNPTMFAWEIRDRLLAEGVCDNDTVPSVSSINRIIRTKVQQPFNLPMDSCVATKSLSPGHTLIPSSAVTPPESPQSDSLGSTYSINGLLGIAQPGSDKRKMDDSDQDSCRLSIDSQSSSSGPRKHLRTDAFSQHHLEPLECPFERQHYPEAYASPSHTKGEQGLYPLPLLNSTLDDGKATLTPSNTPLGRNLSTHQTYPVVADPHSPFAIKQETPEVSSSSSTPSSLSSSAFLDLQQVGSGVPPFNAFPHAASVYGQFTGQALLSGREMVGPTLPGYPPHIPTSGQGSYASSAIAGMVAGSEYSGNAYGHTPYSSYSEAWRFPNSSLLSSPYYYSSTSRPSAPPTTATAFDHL

[8] = IOSE-T80 ovarian epithelial cell cytotoxicity, dose response, cytotoxicity control for PAX8 inhibitor project, plate reader, dry powder samples (AID 743045); assay type: functional, cell-based
[9] = inhibitors of PGC1a acetylation in cells, dose response, cell-based, cherry-picked samples (AID 720514); assay type: functional;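 further: potency may reflect raised or lowered acetylation signal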
[10] = NIH:OVCAR-3 ovarian cancer cell cytotoxicity, dose response, PAX8 inhibitor project, plate reader, dry powder samples (AID 743044); assay type: functional, cell-based
[11] = IGROV1 ovarian cancer cell cytotoxicity, dose response, PAX8 inhibitor project, plate reader, dry powder samples (AID 743043); assay type: functional, cell-based; conditions: IGROV-1
[12] = non-specific cell cytotoxicity, dose response, cytotoxicity control for PAX8 inhibitor project, plate reader, dry powder samples (AID 743021); assay type: functional, cell-based
[13] = molecular target: T1, Rac GTPase-activating protein 1 (Homo sapiens, UniProt Q9H0H5); assay: MgcRacGAP GTPase-activating activity inhibitors, confirmation, biochemical, ADP Hunter fluorescence, primary and confirmatory (AID 624330); assay type: functional
T1 sequence (Q9H0H5 whole entry): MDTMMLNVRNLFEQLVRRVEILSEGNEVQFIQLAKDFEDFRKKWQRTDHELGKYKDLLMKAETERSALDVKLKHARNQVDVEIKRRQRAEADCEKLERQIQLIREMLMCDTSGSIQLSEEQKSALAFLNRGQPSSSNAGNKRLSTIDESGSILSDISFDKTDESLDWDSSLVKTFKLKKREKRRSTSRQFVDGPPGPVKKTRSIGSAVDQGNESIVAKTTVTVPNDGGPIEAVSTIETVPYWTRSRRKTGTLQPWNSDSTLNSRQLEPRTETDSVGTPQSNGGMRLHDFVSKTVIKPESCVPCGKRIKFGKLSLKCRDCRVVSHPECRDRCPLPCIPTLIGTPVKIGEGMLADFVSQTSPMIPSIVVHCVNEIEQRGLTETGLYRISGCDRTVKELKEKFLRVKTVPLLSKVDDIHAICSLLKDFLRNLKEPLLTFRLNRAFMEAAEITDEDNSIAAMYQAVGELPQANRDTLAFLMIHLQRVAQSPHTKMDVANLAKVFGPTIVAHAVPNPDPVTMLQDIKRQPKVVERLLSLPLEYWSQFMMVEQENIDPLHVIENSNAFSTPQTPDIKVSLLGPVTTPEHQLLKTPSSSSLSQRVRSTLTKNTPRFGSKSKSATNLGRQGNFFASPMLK

fMet-Leu-Phe receptor = fMet-Leu-Phe receptor (Homo sapiens, UniProt P21462); assay: FPR ligands, dose response (AID 519); assay type: functional
Sequence of fMet-Leu-Phe receptor (P21462 whole entry): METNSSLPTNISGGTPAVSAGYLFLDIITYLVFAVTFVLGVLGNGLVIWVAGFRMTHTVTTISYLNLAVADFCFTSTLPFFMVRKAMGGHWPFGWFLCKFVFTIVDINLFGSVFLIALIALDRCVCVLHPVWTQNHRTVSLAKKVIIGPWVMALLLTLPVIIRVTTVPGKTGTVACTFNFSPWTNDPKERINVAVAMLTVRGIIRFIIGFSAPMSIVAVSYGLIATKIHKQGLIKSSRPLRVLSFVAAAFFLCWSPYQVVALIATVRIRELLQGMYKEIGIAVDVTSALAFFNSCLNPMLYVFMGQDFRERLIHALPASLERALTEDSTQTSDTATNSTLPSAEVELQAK

[14] = HEK293T cell cytotoxicity, dose response, cytotoxicity control, CellTiter-Glo luminescence, dry powder, set 6 (AID 651949); assay type: functional, cell-based; conditions: HEK293
[15] = molecular target: Potassium channel subfamily K member 9 (Homo sapiens, UniProt Q9NPC2); assay: TASK3 (KCNK9) channel inhibitors, thallium flux, SAR follow-up, selectivity assay for TASK1 inhibitor project, cell-based, FluxOR thallium flux, concentration-response (AID 652211); assay type: functional;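 further: potency is for inhibitors of the channel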
Sequence of Potassium channel subfamily K member 9 (Q9NPC2 whole entry): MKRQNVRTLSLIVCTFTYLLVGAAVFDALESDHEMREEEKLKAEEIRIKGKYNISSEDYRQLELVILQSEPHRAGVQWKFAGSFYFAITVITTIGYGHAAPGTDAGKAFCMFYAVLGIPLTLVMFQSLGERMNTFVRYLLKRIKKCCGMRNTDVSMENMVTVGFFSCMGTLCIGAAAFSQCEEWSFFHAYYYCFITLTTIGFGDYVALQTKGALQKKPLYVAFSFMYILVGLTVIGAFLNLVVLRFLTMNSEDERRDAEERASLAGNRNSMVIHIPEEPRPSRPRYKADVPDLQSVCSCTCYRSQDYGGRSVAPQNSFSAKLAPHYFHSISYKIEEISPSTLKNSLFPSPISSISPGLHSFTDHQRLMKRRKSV

[16] = molecular target: Potassium channel subfamily K member 3 (Homo sapiens, UniProt O14649); assay: TASK1 (KCNK3) potassium channel inhibitors, SAR follow-up, CHO cells, FluxOR thallium flux (AID 652212); assay type: functional
Sequence of Potassium channel subfamily K member 3 (O14649 whole entry): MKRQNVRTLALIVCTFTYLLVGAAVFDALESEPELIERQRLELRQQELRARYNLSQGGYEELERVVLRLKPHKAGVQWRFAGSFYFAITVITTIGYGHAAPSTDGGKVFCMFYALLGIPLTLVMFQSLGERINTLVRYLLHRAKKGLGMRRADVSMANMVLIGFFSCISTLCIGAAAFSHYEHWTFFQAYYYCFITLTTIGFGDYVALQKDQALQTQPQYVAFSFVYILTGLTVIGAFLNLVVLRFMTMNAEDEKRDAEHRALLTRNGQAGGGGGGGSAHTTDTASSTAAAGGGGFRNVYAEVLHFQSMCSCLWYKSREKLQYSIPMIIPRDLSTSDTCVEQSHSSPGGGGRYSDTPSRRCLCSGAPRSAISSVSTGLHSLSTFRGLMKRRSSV

CCC(O)C1CCN(C(=O)c2cc(COc3ccc4ncccc4c3)on2)CC1 (centres undefined)
IC50 [1]: 0.571 µM (active) | IC50 [2]: 0.294 µM (active) | IC50 [3]: > 80 µM (inactive) | AC50 (INS1): 3.38 µM (active) | AC50 [4]: 0.505 µM (active) | AC50 [5]: 1.75 µM (active) | AC50 [6]: 10.9 µM (active) | IC50 [7]: 4.46 µM (active)

O=C(Nc1cccc(F)c1)N1C[C@@H]2N[C@H](C1)[C@@H]2c1ccc(-c2ccc(F)cc2)cc1
AC50 (Paired box protein Pax-8): 19.5 µM (active) | AC50 [8]: 34.3 µM (active) | AC50 [9]: 18.5 µM (active) | AC50 [10]: 17.7 µM (active) | AC50 [11]: 22.4 µM (active) | AC50 [12]: 65.7 µM (active)

CC(C)(C)CC(=O)Nc1ccc(Nc2ccccc2)cc1
IC50 [13]: 88.6 µM (active) | Ki (fMet-Leu-Phe receptor): > 66.7 µM (inactive)

c1ccc(CNCCSc2nnc(-c3ccccc3)o2)cc1
AC50 [14]: > 52 µM (inactive)

COc1c(F)cccc1C(=O)Nc1cccc(NC(=O)c2cccc(C)c2)c1
IC50 [15]: 0.37 µM (active) | IC50 [16]: 0.013 µM (active)
